Measurements reported in US20150209275A1, “Fast Dissolving Ocular Insert” (UNIVERSITY OF THE WITWATERSRAND, JOHANNESBURG, priority 2012, published 2015).
Each block holds one compound with its values, some of them ahead of it.

Columns and labels:
CAM = test: Modified Hen Egg Chorioallontoic (HET-CAM) ocular toxicity test; settings: 0.3 mL sample on CAM, 5 minutes
Method: The methodology involved using hen's eggs (50-60 g fertile) that were purchased from a local hatchery (Bruce Hatcheries, South Africa) and less than a week old. The eggs were placed in commercial incubators (Surehatch, Brakenfell, South Africa) and rotated every 12 hours. On day 3, a hole was made and the albumin was removed. The eggs were sealed by sterile heated parafilm and left in an equatorial position. On day 5 and everyday thereafter eggs were candled for viability and non-viable ones were discarded. On day 10, a window (2×2 cm) was made and 2-3 mL saline (0.9% NaCl) was added and eggs were returned to the incubator. […] The eggs were then dosed with 0.3 mL of samples and observed for 5 minutes for any effects of injury in accordance with Table 11 and this was noted. Saline was used as a control for comparison purposes. Eggs were scored for severity of any reaction and time taken to occur (Table 11). At the end of the assay the embryos were discarded immediately by placing the eggs into a freezer −80° C. The following features were used for observation of injury: hemorrhage, vascular lysis and coagulation. FIG. 9 depicts the procedure for the test.
The period taken for any untoward reaction to occur was noted and the irritation threshold was determined ([…] concentration of samples required for a minimal reaction to occur). The irritation score was calculated by means of Equation 4.

[1] = as an oral drug; cited from earlier work
Excised rabbit corneas = test: Ex vivo permeation, Franz diffusion cell; format: in vitro ADME; settings: excised rabbit cornea
Method: Franz diffusion cell apparatus was used to conduct ex vivo permeation studies. Excised rabbit corneas (11.83±0.04 mm in diameter and area […]) were mounted on the Franz diffusion cell apparatus (Permagear, Arnie Systems, USA) connected to a heating bath system for temperature control. The diffusion cell donor chamber was filled with 2 mL Simulated tear (lacrimal) fluid (SLF) (Gonjari et al., 2009) (which was maintained to simulate tear volume). 12 mL Simulated Aqueous Humor (SAH, pH 7.4, 37° C.) (Giannola et al., 2007) solution was contained in the receptor chamber. The cornea was placed such that the surface was in contact with the receptor solution which was continuously stirred by a magnetic stirrer at 20 rpm to simulate blinking. […] Aliquots of sample were withdrawn from the receptor compartment at regular intervals (30, 60, 120, 180, 240 minutes and 24 hours after insertion) and replaced with an equal volume of dissolution medium. Samples were then subjected to the quantification of drug through spectrophotometric analysis at 295 nm (Hewlett Packard 8453 Spectrophotometer, Germany) to determine the drug release and flux (rate of drug permeation per unit area). Drug flux values were calculated at the steady state per unit area by regression analysis of permeation. Drug flux values were calculated employing Equation 7. […]

Compound: CCCCCCCCCCCCOS(=O)(=O)[O-].[Na+] [SDS, Sodium Dodecyl Sulphate]
HET-CAM Inference (CAM): Severe
IS (irritation score) (CAM; scale 0-21, mean of 3 values, Sulphate): 10.4
HET-CAM Score (CAM; score 0-3 per Table 11, mean of 3 values): 2.5

Compound: CC(C)(C)NC[C@H](O)COc1nsnc1N1CCOCC1 [timolol]
BCS class [1]: class 1

steady state drug flux (Excised rabbit corneas; SLF donor, SAH pH 7.4, 37° C. receptor): 0.000378 mg.cm^−2.min^−1
Kp (permeability co-efficient) (Excised rabbit corneas; mean of 3 values): 2 ×10⁻⁶ cm/s
Compound: Timolol maleate salt [Pure drug dispersion]
